According to patent US5324715A, “Protein for inhibiting collagen-stimulated platelet aggregation” (Merck & Co., Inc., priority 1993, dated 1994):

Assays:
washed human platelets = assay: Collagen-stimulated platelet aggregation (aggregometer); assay type: cell-based; settings: 0.25 mM arachidonic acid added later; 2 μg/ml collagen; inhibitor of Examples 1 and 2 present
Method: Human platelets are washed in modified Tyrode's buffer with no Ca^++ with 0.2 mg/ml fibrinogen. The washed platelets are incubated at 37° C. for 2 minutes with the sample to be tested. Collagen at 1 or 2 μg/ml final concentration is added and platelet aggregation in an aggregometer is monitored. Inhibitory activity is defined as a decrease in the rate and/or extent of platelet aggregation.
The IC50 for this inhibition was 45 nM. Inhibition of collagen stimulation was overcome by later addition of 0.25 mM arachidonic acid.

Molecule: CCCCC/C=C\C/C=C\C/C=C\C/C=C\CCCC(=O)O [arachidonic acid]
- Inhibition of collagen stimulation of platelet aggregation (by the Haementeria officinalis inhibitor) overcome by later addition (washed human platelets): overcome

B1: collagen-stimulated platelet aggregation inhibitor isolated from Haementeria officinalis salivary gland extract (leech antiplatelet protein, LAPP) (protein)
chain: QDEDAGGAGDETSEGEDTTGSDETPSTGGGGDGGNEETITAGNGDCWSKRPGWKLPDNLLTKTEFTSVDECRKMCEESAVEPSCYILQINTETNECYRNNEGDVTWSSLQYDQPNVVQWHLHACSK
- IC50 of inhibition of collagen-stimulated platelet aggregation (collagen): 45 nM
